Data as given in the supplement of paper PMC11451515.

System: P12-Ichikawa
Assay: cell viability relative to DMSO control; higher = less cytotoxic
Details: 48 h
Outline: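 Viability values are per-plate percentages of DMSO wells, with background from cell-free wells. Library compounds in DMSO were pin-dosed, in an 11-point threefold series from 47 μM to 0.79 nM, onto NOMO1 or SEM (500 cells/well) or P12-Ichikawa (1000 cells/well) leukemia cells in 1536-well plates (5 μl). Those cells had been adapted for at least four passages in each medium, and CellTiter-Glo One luminescence was read after 48 h at 37°C.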

[1] = HPLM + 10% dialyzed FBS, 0.000781 µM
[2] = HPLM + 10% dialyzed FBS, 0.00234 µM
[3] = HPLM + 10% dialyzed FBS, 0.00702 µM
[4] = HPLM + 10% dialyzed FBS, 0.0211 µM
[5] = HPLM + 10% dialyzed FBS, 0.0632 µM
[6] = HPLM + 10% dialyzed FBS, 0.19 µM
[7] = HPLM + 10% dialyzed FBS, 0.569 µM
[8] = HPLM + 10% dialyzed FBS, 1.71 µM
[9] = HPLM + 10% dialyzed FBS, 5.12 µM
[10] = HPLM + 10% dialyzed FBS, 15.4 µM
[11] = HPLM + 10% dialyzed FBS, 46.1 µM
[12] = RPMI 5 mM glucose + 10% FBS, 0.000781 µM
[13] = RPMI 5 mM glucose + 10% FBS, 0.00234 µM
[14] = RPMI 5 mM glucose + 10% FBS, 0.00702 µM
[15] = RPMI 5 mM glucose + 10% FBS, 0.0211 µM
[16] = RPMI 5 mM glucose + 10% FBS, 0.0632 µM
[17] = RPMI 5 mM glucose + 10% FBS, 0.19 µM
[18] = RPMI 5 mM glucose + 10% FBS, 0.569 µM
[19] = RPMI 5 mM glucose + 10% FBS, 1.71 µM
[20] = RPMI 5 mM glucose + 10% FBS, 5.12 µM
[21] = RPMI 5 mM glucose + 10% FBS, 15.4 µM
[22] = RPMI 5 mM glucose + 10% FBS, 46.1 µM
[23] = RPMI 5 mM glucose + 10% dialyzed FBS, 0.000781 µM
[24] = RPMI 5 mM glucose + 10% dialyzed FBS, 0.00234 µM
[25] = RPMI 5 mM glucose + 10% dialyzed FBS, 0.00702 µM
[26] = RPMI 5 mM glucose + 10% dialyzed FBS, 0.0211 µM
[27] = RPMI 5 mM glucose + 10% dialyzed FBS, 0.0632 µM
[28] = RPMI 5 mM glucose + 10% dialyzed FBS, 0.19 µM
[29] = RPMI 5 mM glucose + 10% dialyzed FBS, 0.569 µM
[30] = RPMI 5 mM glucose + 10% dialyzed FBS, 1.71 µM
[31] = RPMI 5 mM glucose + 10% dialyzed FBS, 5.12 µM
[32] = RPMI 5 mM glucose + 10% dialyzed FBS, 15.4 µM
[33] = RPMI 5 mM glucose + 10% dialyzed FBS, 46.1 µM

SMILES	cell viability [1]	cell viability [2]	cell viability [3]	cell viability [4]	cell viability [5]	cell viability [6]	cell viability [7]	cell viability [8]	cell viability [9]	cell viability [10]	cell viability [11]	cell viability [12]	cell viability [13]	cell viability [14]	cell viability [15]	cell viability [16]	cell viability [17]	cell viability [18]	cell viability [19]	cell viability [20]	cell viability [21]	cell viability [22]	cell viability [23]	cell viability [24]	cell viability [25]	cell viability [26]	cell viability [27]	cell viability [28]	cell viability [29]	cell viability [30]	cell viability [31]	cell viability [32]	cell viability [33]
Cc1cc(OCCCc2c(C(=O)O)n(Cc3cccnc3)c3c(-c4c(COc5ccc(N6CCN([S+](C)(=O)[O-])CC6)cc5)nn(C)c4C)cccc23)cc(C)c1Cl	99.6%	100%	100%	97%	99.8%	97.4%	92.9%	96.1%	86.9%	88.1%	80.4%	92.4%	102%	96.6%	102%	101%	95.6%	85.9%	89.3%	86.2%	88.3%	77.1%	91.3%	95%	99.3%	97.5%	102%	98.4%	90.9%	93.5%	93.1%	78.2%	82.9%
CNC1CCC(N(Cc2cccc(-c3ccncc3)c2)C(=O)c2sc3ccccc3c2Cl)CC1 (stereo not drawn)	96.9%	102%	107%	99.9%	97.3%	99.7%	107%	13.8%	4.58%	1.97%	0.291%	89.2%	92.9%	91.4%	96.6%	94.5%	94.8%	102%	61.3%	4.21%	3.93%	1.13%	79.1%	86.1%	86.9%	95.8%	86.2%	94.4%	97.1%	44.7%	4.4%	3.5%	0.803%
CCCCCOC(=O)NC\1=N\C(=O)N(\C=C1F)[C@@H]2O[C@H](C)[C@@H](O)[C@H]2O	107%	91.7%	101%	103%	97.1%	103%	93.8%	96.4%	94.2%	89.9%	86.7%	96.7%	99.4%	97.4%	93.7%	101%	91.5%	92.6%	93.3%	89.6%	77.3%	84%	101%	96.1%	96.2%	94.8%	100%	93%	91.2%	87.2%	90.1%	83.8%	83.8%
FC(F)(F)c1ccc(/C=C/c2nc(COc3ccc(CCCCn4ccnn4)cc3)co2)cc1	119%	124%	110%	97.3%	88%	86.9%	83.4%	85.6%	40.4%	35.6%	81.6%																						
OC1=CC=C(C=C1)\C2=C\OC3=C(C=CC(=C3)O)C2=O	112%	107%	105%	97.2%	110%	104%	102%	99.2%	92.7%	102%	98.1%	98.3%	90.4%	103%	99.1%	100%	87%	90.9%	89.5%	92.9%	86.9%	89.7%	100%	96.3%	95.4%	99.9%	97.3%	96.7%	95.8%	98.1%	93.1%	90.3%	88%
CN(C)CCOc1cc(-c2cn[nH]c2)ccc1NC(=O)C1COc2ccccc2O1 (stereo not drawn)	105%	112%	103%	107%	114%	117%	110%	104%	98.7%	95.3%	95.3%	107%	113%	115%	112%	117%	118%	128%	113%	107%	88.8%	84.1%	105%	122%	123%	116%	122%	125%	128%	118%	109%	95.8%	97.2%
C#Cc1cccc(Nc2ncnc3cc(OCCOC)c(OCCOC)cc23)c1	98.2%	101%	97.2%	89.3%	99.5%	100%	101%	91.3%	88.5%	84.3%	62%	96.6%	92.8%	92.1%	95.5%	95.6%	92%	88.6%	88.4%	78.9%	83.6%	52.5%	96.5%	93.2%	95.5%	91.8%	96.4%	93.3%	86.8%	80.2%	83.3%	78.7%	56.6%
COC1=CC2=NC=CC(=C2C=C1)OC3=CN=C(NC(=O)C/4=C(C)/N(CC(C)(C)O)N(C4=O)C5=CC=CC=C5)C=C3	87.7%	92.6%	87.6%	91.3%	97.1%	96.4%	95%	91.6%	76.9%	85.7%	74.4%	89.4%	87.9%	89.7%	92.1%	92.1%	91.9%	89.5%	90.5%	70.1%	90%	63.6%	81.1%	88.7%	89.8%	98.5%	96.6%	93.2%	94.9%	91.4%	78.8%	81.9%	61.2%
CCCCn1c(=O)n(Cc2ccccc2F)c(=O)c2nc(Cc3ccc(NC(C)=O)cc3)[nH]c21	93.4%	95.6%	94.6%	90.1%	88.6%	88.8%	89.4%	79.6%	85.5%	83.3%	92.8%	87.9%	87.8%	89.9%	85%	94.5%	88.3%	82.7%	75.5%	82.5%	79.2%	89.1%	88.2%	82.1%	87.2%	91.3%	90.5%	78.6%	86.3%	90.7%	85.9%	79.7%	83%
CCC[C@H](NC(=O)/C(C#N)=C/c1cccc(Br)n1)c1ccccc1	122%	121%	121%	102%	124%	121%	113%	113%	112%	103%	6.91%	130%	122%	122%	111%	120%	116%	128%	122%	111%	103%	5.26%	116%	131%	125%	114%	114%	121%	121%	121%	107%	94.4%	5.69%
CC1=CC=CC=C1N2\C(=N/C3=C(C(=CC=C3)C)C2=O)C[N]4C=NC5=C4N=CN=C5N	115%	124%	122%	85%	120%	118%	108%	106%	79.5%	78.2%	82.2%	113%	116%	107%	79.6%	109%	98.1%	97.6%	81.2%	62.8%	60.5%	57.9%	107%	123%	116%	81.7%	128%	112%	108%	95.6%	70.2%	56%	63.9%
Cn1c(=O)c2c(ncn2C)n(C)c1=O.O=C(O)CC(O)(CC(=O)O)C(=O)O	108%	106%	112%	111%	111%	113%	105%	105%	96.8%	101%	93.1%	116%	119%	126%	126%	121%	117%	115%	116%	120%	110%	107%	106%	114%	110%	111%	110%	109%	105%	114%	113%	106%	96.3%
Cc1ccc(NC(=O)c2ccc(CN3CCN(C)CC3)cc2)cc1Nc1nc(-c2cccnc2)cs1	102%	104%	106%	103%	106%	102%	101%	92.7%	70.5%	57%	41.3%	105%	101%	110%	113%	100%	111%	89.1%	89.7%	63%	50.4%	49.7%	108%	112%	109%	109%	110%	108%	95.5%	95.1%	62.1%	46.1%	45.4%
COc1cc2c(cc1-c1c(C)noc1C)ncc1[nH]c(=O)n([C@H](C)c3ccccn3)c12	107%	109%	111%	111%	115%	105%	103%	86.2%	44.2%	48.9%	12.2%	107%	110%	101%	111%	115%	99.2%	110%	92.1%	48.3%	48.5%	23.1%	112%	106%	109%	104%	105%	105%	101%	90.2%	52.4%	48.6%	22.4%
C/C=C(/C)C(=O)O[C@H]1C(C)=C2[C@H]([C@@H]1OC(=O)CCCCCCC)[C@@](C)(OC(C)=O)C[C@H](OC(=O)CCC)[C@@]1(O)[C@H]2OC(=O)[C@@]1(C)O	103%	114%	111%	109%	104%	71%	38.5%	51.5%	67%	69.8%	75.2%	120%	129%	107%	125%	96.8%	66.4%	22.1%	23.8%	46%	48.2%	42.4%	109%	121%	123%	112%	95.7%	52.6%	13.3%	8.27%	16.7%	20.3%	22.7%
